Read-outs that look alike come from different tables or passages of the source.
Legend:
[1] = Stability study of 1 μg/63 μl formulations with 0.1M hydrochloric acid, upright cans at 40° C. and 75% relative humidity; assay type: physicochemical; conditions: 15 w/w ethanol, HFA 134a, three months
Protocol: Two aluminum canisters having the internal surface coated with Teflon and fitted with commercial valves having a 63 μl metering chamber were filled with the following formulations shown in Table 3. A stability study was carried out by storing the formulations in upright cans at 40° C. and 75% relative humidity.

[2] = Stability study of the 1 μg/63 μl formulation with 15.2 M phosphoric acid, upright and inverted cans at 40° C. and 75% relative humidity; assay type: physicochemical; conditions: 15% w/w ethanol, HFA 134a, 15.2 M phosphoric acid 0.001 to 0.0027% w/w, six months
Protocol: The formulation of Table 4 (120 actuations/canister, overage of 30 actuations) was filled in aluminum canisters having the internal surface coated with Teflon and fitted with commercial valves having a 63 μl metering chamber. A stability study was carried out by storing the formulation in upright and inverted cans at 40° C. and 75% relative humidity.

[3] = Stability of the TA 2005 + budesonide HFA 134a composition with phosphoric acid, 40° C. and 75% relative humidity; assay type: physicochemical; conditions: TA 2005 1 μg + budesonide 200 μg/actuation, phosphoric acid 85% 0.0032 or 0.0064% w/w, 0.15% w/w water, three months
Protocol: Two compositions were tested containing TA 2005 and budesonide as active ingredients and two different concentrations of phosphoric acid.
Volume of the valve: 63 μl; strength: TA 2005 1 μg+budesonide 200 μg/actuation; no. of actuations: 120 (34 overfilling doses).
The two active ingredients in the compositions were stable after three months storage at 40° C. and 75% relative humidity, giving residual percent amounts of at least 95% TA 2005 and about 100% of Budesonide.

[4] = 3.5 μg/50 μl, cited from earlier work
[5] = 4 μg per actuation, HCl-stabilised HFA 134a/ethanol solution; stored upright at 5° C.; after nine months; mean of 2 cans; cited from earlier work

## COc1ccc(C[C@@H](C)NC[C@H](O)c2ccc(O)c3[nH]c(=O)ccc23)cc1.Cl [TA 2005, 8-hydroxy-5-[(1R)-1-hydroxy-2-[[(1R)-2-(4-methoxyphenyl)-1-methylethyl]amino]ethyl]-2(1H)-quinolinone hydrochloride]
[1]; hydrochloric acid 0.1M 0.018 w/w
  percent amount of TA 2005: 73%
[1]; hydrochloric acid 0.1M 0.027 w/w
  percent amount of TA 2005: 77%
[2]
  residual percent amount of TA 2005: up to 98%
[3]
  residual percent amount: at least 95%
[4]; HFA 134a, 12% w/w ethanol, 1.0% w/w isopropyl myristate, 1.0 μl 0.08M HCl per can (apparent pH about 4.8), Initial
  TA 2005 content, per cent nominal drug concentration: 100.0 per cent
[4]; HFA 134a, 12% w/w ethanol, 1.0% w/w isopropyl myristate, 1.4 μl 0.08M HCl per can (apparent pH about 3.2), Initial
  TA 2005 content, per cent nominal drug concentration: 100.0 per cent
[4]; 1.0 μl 0.08M HCl per can, 50° C., 22 days upright
  TA 2005 content, per cent nominal drug concentration: 98.3 per cent
[4]; 1.0 μl 0.08M HCl per can, 50° C., 83 days upright
  TA 2005 content, per cent nominal drug concentration: 99.4 per cent
[4]; 1.4 μl 0.08M HCl per can, 50° C., 22 days upright
  TA 2005 content, per cent nominal drug concentration: 98.2 per cent
[4]; 1.4 μl 0.08M HCl per can, 50° C., 83 days upright
  TA 2005 content, per cent nominal drug concentration: 98.8 per cent
[5]
  TA 2005 assay: higher than 95%

Source: patent publication US20070025920A1, “Stable Pharmaceutical Solution Formulations for Pressurized Metered Dose Inhalers” (priority 2004, published 2007)
